Reference: patent publication US20110312945A1, “CRTH2 MODULATORS” (priority 2008, published 2011)

What was measured:
[1] = target: T1, CRTH2 (Homo sapiens, UniProt Q9Y5Y4); experiment: Human Whole Blood CD11b Antagonist Assay; format: cell-based; conditions: eosinophil CD11b expression, challenge with 15R-Methyl-PGD2 (10 nM)
T1 construct: polymorphonuclear cells (0.5 ml; 10^6/ml cells) in PBS containing 0.9 mM CaCl2 and 0.5 mM MgCl2; endogenous in cells; host or cells: polymorphonuclear cells (eosinophils gated by flow cytometry)
T1 sequence (Q9Y5Y4 1-395): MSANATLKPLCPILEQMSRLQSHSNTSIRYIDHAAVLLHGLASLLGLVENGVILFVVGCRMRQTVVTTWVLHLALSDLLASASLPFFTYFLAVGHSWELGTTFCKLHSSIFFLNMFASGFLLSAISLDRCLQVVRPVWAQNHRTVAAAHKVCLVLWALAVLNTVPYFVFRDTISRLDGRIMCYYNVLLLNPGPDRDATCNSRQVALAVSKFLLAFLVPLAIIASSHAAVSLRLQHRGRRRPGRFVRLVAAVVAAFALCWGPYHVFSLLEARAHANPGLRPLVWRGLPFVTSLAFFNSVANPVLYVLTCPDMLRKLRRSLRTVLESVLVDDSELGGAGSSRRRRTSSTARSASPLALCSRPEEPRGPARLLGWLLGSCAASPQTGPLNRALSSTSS
Procedure: Human Whole Blood CD11b Antagonist Assay (modified from Nicholson, et al. Pulmonary Pharmacology and Therapeutics: 20 (2007); 52-59). The potential CRTH2 antagonist activity of certain compounds was tested in human whole blood using an assay that tests the ability of the compounds to block the CD11b expression in eosinophils by 15-R-methyl-PGD2. A CRTH2 antagonist should block CD11b expression by subsequently added 15-Methyl-PGD2. Human whole blood (200 μL) was incubated at 37° C. for 10 minutes in the presence of various concentrations of test compounds before being challenged with the agonist 15R-Methyl-PGD2 (10 nM). Reactions were terminated by the addition of ice-cold PBS+0.5% BSA+2 mMEDTA (1 mL) and centrifugation (300×g for 5 minutes at 4° C.) Cells were then incubated at 4° C. for 10 min in the presence of human IgG. Cells were then incubated for 30-45 min with a mixture of PE-Cy5-labeled mouse anti-human CD16 (10 ul; BD Biosciences) and FITC-labeled mouse anti-human CD11b (10 μL; Beckman Coulter.) After rinsing (1 mL ice-cold PBS+0.5% BSA+2 mMEDTA), red blood cells were lysed by the addition of 1 mL ice-cold H2O to the cell pellet for 30 sec-1 min immediately followed by the addition of 3.5% NaCl (300 μL.) Cells were then rinsed (2x−1 ml ice cold PBS+0.5% BSA+2 mMEDTA) and fixed in PBS containing 1% formaldehyde. The distribution of fluorescence intensities was measured by flow cytometry. Eosinophils were gated out on the basis of their granularity (high side scatter) and absence of CD-16. CD11b was then measured on this eosinophil population on the basis of fluorescence due to FITC.

[2] = tested on: DK-PGD2-induced systemic eosinophilia; experiment: DK-PGD2-Induced Systemic Eosinophilia in Rats; format: in vivo; conditions: Rattus norvegicus, Eosinophil; female Sprague-Dawley rats, oral dosing 30 min before intracardiac 10 μg DK-PGD2, blood eosinophils at 60 min
Procedure: DK-PGD2-Induced Systemic Eosinophilia in Rats. Female Sprague-Dawley rats (175-250 g) were dosed orally with test compound (or vehicle). Thirty minutes after dosing, animals were anaesthetized with isoflurane. Following induction of anaesthesia, animals received an intracardiac injection of 10 μg DK-PGD2 in 0.3 ml heparinized (10 U/ml) saline. Control animals received an injection of 0.3 ml heparinized saline. Sixty minutes after the intracardiac injection, animals were again anesthetized with isoflurane and a blood sample was drawn from the abdominal aorta (into heparin) while the rat was anaesthetized but not dead. An aliquot of blood (500 μL) was mixed with an equal volume of 4% dextran (mw 500,000) and the erythrocytes were allowed to settle. A cytospin preparation was made from the resulting leukocyte rich fraction (top) and the cytospin was fixed and stained with Diff-Quick Stain kit (Dade Behring Inc, Newark, Del.). An aliquot of the leukocyte rich fraction was taken for total leukocyte count using flow cytometer (Guava EasyCyte Mini system). Differential leukocyte counts were obtained from the cytospin preparations. Blood eosinophil numbers were determined from the total leukocyte count and the percentage eosinophils.

[3] = target: T1, CRTH2; experiment: DPBS CD11b Antagonist Assay; format: cell-based; conditions: polymorphonuclear cells in PBS, eosinophil CD11b expression, challenge with 15R-Methyl-PGD2 (10 nM)
Procedure: DPBS CD11b Antagonist Assay. The potential CRTH2 antagonist activity of certain compounds was tested using a CD11b expression assay using essentially the method described by Monneret et al. (J Pharmacol Exp Ther 304:349-55, 2003). Briefly, polymorphonuclear cells (0.5 ml; 10^6/ml cells) in PBS containing 0.9 mM CaCl2 and 0.5 mM MgCl2) were preincubated with various concentrations of test compounds at room temperature for 10 minutes before they were challenged with the agonist 15R-Methyl-PGD2 (10 nM). The incubations were terminated by the addition of ice-cold FACSFlow (BD Biosciences; Cat# 342003) and centrifugation (400 g for 5 minutes at 4° C.). The cells were then incubated for 30 minutes at 4° C. with a mixture of PE-labeled mouse anti-human VLA-4 (5 μl; BD Biosciences) and FITC-labeled mouse anti-human CD11b (10 μl; Beckman Coulter). The cells were then incubated with Optilyse C (0.25 ml; Beckman Coulter) for 15 minutes, centrifuged, and then fixed in PBS (0.4 ml; calcium and magnesium free) containing 1% formaldehyde. The distribution of fluorescence intensities among 60,000 cells was measured by flow cytometry. Eosinophils were gated out on the basis of their granularity (high side scatter) and labeling with VLA-4 (PE fluorescence). CD11b was then measured in the eosinophil region on the basis of fluorescence due to FITC. All data were corrected for the value obtained for the corresponding isotope control antibody.

SMILES | IC50 [1] [nM] | IC50 [3] [nM] | ED50 [2] [mg/kg]
Cc1c(Cc2ccc(S(=O)(=O)N3CCCC3)cc2)c2c(n1CC(=O)O)CCCC2 [Example I-1, 2-(2-Methyl-3-(4-(pyrrolidin-1-ylsulfonyl)benzyl)-4,5,6,7-tetrahydro-1H-indol-1-yl)acetic acid] | 5 to 100 | < 5 | 1 to 10
Cc1c(Cc2ccc(S(=O)(=O)NC3CCCCC3)cc2)c2c(n1CC(=O)O)CCCC2 [Example I-2, 2-(3-(4-(N-Cyclohexylsulfamoyl)benzyl)-2-methyl-4,5,6,7-tetrahydro-1H-indol-1-yl)acetic acid] | 100 to 500 | < 5 | 1 to 10
Cc1c(Cc2ccc(S(=O)(=O)N3CCCC3)cc2)c2c(n1CC(=O)O)CCC(C)(C)C2 [Example I-4, 2-(2,5,5-Trimethyl-3-(4-(pyrrolidin-1-ylsulfonyl)benzyl)-4,5,6,7-tetrahydro-1H-indol-1-yl)acetic acid] | 5 to 100 | < 5 | < 1
Cc1c(Cc2ccc(S(=O)(=O)N3CCOCC3)cc2)c2c(n1CC(=O)O)CCC(C)(C)C2 [Example I-11, 2-(2,5,5-Trimethyl-3-(4-(morpholinosulfonyl)benzyl)-4,5,6,7-tetrahydro-1H-indol-1-yl)acetic acid] | 100 to 500 | < 5 | < 1
Cc1c(Cc2ccccc2S(=O)(=O)N2CCOCC2)c2c(n1CC(=O)O)CCC(C)(C)C2 [Example I-17, 2-(2,5,5-Trimethyl-3-(2-(morpholinosulfonyl)benzyl)-4,5,6,7-tetrahydro-1H-indol-1-yl)acetic acid] | 5 to 100 | < 5 | < 1
Cc1c(Cc2ccc(S(=O)(=O)N3CCCC3)cc2)c2c(n1CC(=O)O)CCC2 [Example I-19, 2-(2-Methyl-3-(4-(pyrrolidin-1-ylsulfonyl)benzyl)-5,6-dihydrocyclopenta[b]pyrrol-1(4H)-yl)acetic acid] | – | 5 to 100 | < 1
Cc1c(Cc2ccccc2S(=O)(=O)N2CCOCC2)c2c(n1CC(=O)O)CCC2 [Example I-23, 2-(2-methyl-3-(2-(morpholinosulfonyl)benzyl)-5,6-dihydrocyclopenta[b]pyrrol-1(4H)-yl)acetic acid] | – | – | 1 to 10

Further lines, with some results ahead:

IC50 [1] [nM] | IC50 [3] [nM] | SMILES | ED50 [2] [mg/kg]
5 to 100 | 5 to 100 | Cc1c(Cc2ccc(S(=O)(=O)N3CCCC3)cc2)c2c(n1CC(=O)O)CCCCC2 [Example I-20, 2-(2-Methyl-3-(4-(pyrrolidin-1-ylsulfonyl)benzyl)-5,6,7,8-tetrahydrocyclohepta[b]pyrrol-1(4H)-yl)acetic acid] | < 1
100 to 500 | 5 to 100 | Cc1c(Cc2ccccc2S(=O)(=O)N2CCOCC2)c2c(n1CC(=O)O)CCCCC2 [Example I-21, 2-(2-Methyl-3-(2-(morpholinosulfonyl)benzyl)-5,6,7,8-tetrahydrocyclohepta[b]pyrrol-1(4H)-yl)acetic acid] | < 1
– | 5 to 100 | Cc1c(Cc2ccccc2S(=O)(=O)N2CCCC2)c2c(n1CC(=O)O)CCCCC2 [Example I-22, 2-(2-Methyl-3-(2-(pyrrolidin-1-ylsulfonyl)benzyl)-5,6,7,8-tetrahydrocyclohepta[b]pyrrol-1(4H)-yl)acetic acid] | < 1
5 to 100 | < 5 | Cc1c(Cc2ccccc2S(=O)(=O)N2CCOCC2)c2c(n1CC(=O)O)CC(C)(C)CC2=O [Example I-40, 2-(2,6,6-trimethyl-3-(2-(morpholinosulfonyl)benzyl)-4-oxo-4,5,6,7-tetrahydro-1H-indol-1-yl)acetic acid] | < 1
5 to 100 | < 5 | Cc1c(Cc2ccccc2S(=O)(=O)N2CCCC2)c2c(n1CC(=O)O)CC(C)(C)CC2=O [Example I-43, 2-(2,6,6-trimethyl-4-oxo-3-(2-(pyrrolidin-1-ylsulfonyl)benzyl)-4,5,6,7-tetrahydro-1H-indol-1-yl)acetic acid] | < 1
– | < 5 | Cc1c(Cc2ccccc2S(=O)(=O)N(C)c2ccccc2)c2c(n1CC(=O)O)CC(C)(C)CC2=O [Example I-49, 2-(2,6,6-trimethyl-3-(2-(N-methyl-N-phenylsulfamoyl)benzyl)-4-oxo-4,5,6,7-tetrahydro-1H-indol-1-yl)acetic acid] | 1 to 10
– | 100 to 500 | CCOC(=O)Cn1c(C)c(Cc2ccccc2S(=O)(=O)N2CCCC2)c2c1CC(C)(C)CC2=O [Example I-51, ethyl 2-(2,6,6-trimethyl-4-oxo-3-(2-(pyrrolidin-1-ylsulfonyl)benzyl)-4,5,6,7-tetrahydro-1H-indol-1-yl)acetate] | < 1
– | 100 to 500 | Cc1c(Cc2ccccc2S(=O)(=O)N2CCCC2)c2c(n1CC(=O)OC(C)C)CC(C)(C)CC2=O [Example I-55, isopropyl 2-(2,6,6-trimethyl-4-oxo-3-(2-(pyrrolidin-1-ylsulfonyl)benzyl)-4,5,6,7-tetrahydro-1H-indol-1-yl)acetate] | < 1
